“And” between values parts separate entries of the source, which are not always exact repeats. Equal entries are not always repeated.
Test: molar heat capacity at constant pressure
Conditions: 101.33 kPa, Crystal, Small sample (50 mg) DSC

CCCCCC[n+]1cccc2ccccc21.O=S(=O)([N-]S(=O)(=O)C(F)(F)F)C(F)(F)F [1-hexylquinolinium bis(trifluoromethylsulfonyl)amide]
Conditions	molar heat capacity at constant pressure
203.04 K	300.57 J/K/mol [middle of 4 runs]
203.05 K	300.39 J/K/mol and 306.52 J/K/mol
203.06 K	305.88 J/K/mol
203.08 K	302.69 J/K/mol
203.13 K	298.95 J/K/mol
203.21 K	298.13 J/K/mol
203.35 K	295.39 J/K/mol
203.56 K	285.68 J/K/mol
203.85 K	280.12 J/K/mol
204.22 K	282.02 J/K/mol
204.66 K	288.24 J/K/mol
205.16 K	293.91 J/K/mol
205.7 K	295.33 J/K/mol
206.26 K	301.86 J/K/mol
206.82 K	315.29 J/K/mol
207.36 K	320.59 J/K/mol
207.9 K	319.02 J/K/mol
208.43 K	317.61 J/K/mol
208.95 K	317.22 J/K/mol
209.48 K	316.74 J/K/mol
210.02 K	313.5 J/K/mol
210.58 K	310.53 J/K/mol
211.15 K	311.06 J/K/mol
211.74 K	311.71 J/K/mol
212.32 K	311.41 J/K/mol
212.92 K	311.93 J/K/mol
213.51 K	313.38 J/K/mol
214.11 K	314.64 J/K/mol
214.7 K	315.47 J/K/mol
215.3 K	316.35 J/K/mol
215.9 K	317.1 J/K/mol
216.5 K	317.71 J/K/mol
217.1 K	318.5 J/K/mol
217.7 K	319.34 J/K/mol
218.3 K	320.14 J/K/mol
218.9 K	320.94 J/K/mol
219.5 K	321.78 J/K/mol
220.1 K	322.65 J/K/mol
220.7 K	323.47 J/K/mol
221.3 K	324.32 J/K/mol
221.9 K	325.15 J/K/mol
222.5 K	325.93 J/K/mol
223.1 K	326.77 J/K/mol
223.7 K	327.6 J/K/mol
224.3 K	328.43 J/K/mol
224.9 K	329.26 J/K/mol
225.5 K	330.08 J/K/mol
226.1 K	330.9 J/K/mol
226.7 K	331.78 J/K/mol
227.3 K	332.65 J/K/mol
227.9 K	333.52 J/K/mol
228.5 K	334.39 J/K/mol
229.1 K	335.29 J/K/mol
229.7 K	336.19 J/K/mol
230.3 K	337.06 J/K/mol
230.9 K	337.92 J/K/mol
231.5 K	338.75 J/K/mol
232.1 K	339.57 J/K/mol
232.7 K	340.41 J/K/mol
233.3 K	341.25 J/K/mol
233.9 K	342.13 J/K/mol
234.5 K	343.04 J/K/mol
235.11 K	343.9 J/K/mol
235.71 K	344.83 J/K/mol
236.31 K	345.73 J/K/mol
236.91 K	346.55 J/K/mol
237.51 K	347.39 J/K/mol
238.11 K	348.22 J/K/mol
238.71 K	348.99 J/K/mol
239.31 K	349.79 J/K/mol
239.91 K	350.56 J/K/mol
240.51 K	351.35 J/K/mol
241.11 K	352.21 J/K/mol
241.71 K	353.05 J/K/mol
242.31 K	353.86 J/K/mol
242.91 K	354.74 J/K/mol
243.51 K	355.63 J/K/mol
244.11 K	356.56 J/K/mol
244.71 K	357.47 J/K/mol
245.31 K	358.35 J/K/mol
245.91 K	359.26 J/K/mol
246.51 K	360.13 J/K/mol
247.11 K	360.95 J/K/mol
247.71 K	361.75 J/K/mol
248.31 K	362.5 J/K/mol
248.91 K	363.25 J/K/mol
249.51 K	363.98 J/K/mol
250.11 K	364.75 J/K/mol
250.71 K	365.53 J/K/mol
251.31 K	366.32 J/K/mol
251.91 K	367.13 J/K/mol
252.51 K	367.96 J/K/mol
253.11 K	368.8 J/K/mol
253.71 K	369.64 J/K/mol
254.31 K	370.52 J/K/mol
254.91 K	371.43 J/K/mol
255.51 K	372.34 J/K/mol
256.11 K	373.31 J/K/mol
256.71 K	374.34 J/K/mol
257.31 K	375.35 J/K/mol
257.91 K	376.38 J/K/mol
258.51 K	377.4 J/K/mol
259.11 K	378.39 J/K/mol
259.71 K	379.39 J/K/mol
260.31 K	380.35 J/K/mol
260.91 K	381.29 J/K/mol
261.51 K	382.27 J/K/mol
262.11 K	383.27 J/K/mol
262.71 K	384.28 J/K/mol
263.31 K	385.29 J/K/mol
263.91 K	386.31 J/K/mol
264.51 K	387.3 J/K/mol
265.11 K	388.31 J/K/mol
265.71 K	389.33 J/K/mol
266.32 K	390.32 J/K/mol
266.92 K	391.31 J/K/mol
267.52 K	392.31 J/K/mol
268.12 K	393.27 J/K/mol
268.72 K	394.25 J/K/mol
269.32 K	395.21 J/K/mol
269.92 K	396.11 J/K/mol
270.52 K	397.07 J/K/mol
271.12 K	398.06 J/K/mol
271.72 K	399.04 J/K/mol
272.32 K	400.09 J/K/mol
272.92 K	401.2 J/K/mol
273.52 K	402.31 J/K/mol
274.12 K	403.5 J/K/mol
274.72 K	404.68 J/K/mol
275.32 K	405.86 J/K/mol
275.92 K	407.08 J/K/mol
276.52 K	408.31 J/K/mol
277.12 K	409.49 J/K/mol
277.72 K	410.7 J/K/mol
278.32 K	411.89 J/K/mol
278.92 K	413.04 J/K/mol
279.52 K	414.18 J/K/mol
280.12 K	415.29 J/K/mol
280.72 K	416.38 J/K/mol
281.32 K	417.47 J/K/mol
281.92 K	418.55 J/K/mol
282.52 K	419.65 J/K/mol

Reference: the NIST ThermoML archive (doi:10.1016/j.jct.2010.12.021)
